Where a SMILES comes first, the peptide text is derived from it. The star is where a group is joined. Cbz = O=C(OCc1ccccc1)*; CH2F = FC*
Assays:
[1] = system: Colo205 xenograft tumor; assay: Colo205 xenograft tumor model
Protocol: Arrows, protein application; asterisks, bortezomib application; symbols, mean of tumor volumes 95% confidence interval (CI), n=12 tumors/treatment group.
8-week-old female NMRI nu/nu mice (Janvier) were injected s.c. with 3×10^6 Colo205 cells in 100 μl PBS at left and right dorsal sides. Treatment started 6 days after tumor cell inoculation when tumors reached about 100 mm^3. […] On day 1, 3, 5 and 7 of treatment, mice received additionally 5 μg bortezomib in 100 μl PBS i.p. three hours before protein injection. The control groups received 100 μl PBS or 5 μg bortezomib at the same time intervals. […] The Tukey's test was applied for statistics.

[2] = system: Colo205 cells; assay: Caspase dependence of cell death in Colo205 cells, MTT; assay type: cell-based; conditions: 25 ng/ml bortezomib, caspase inhibitors 20 μM, 16 h
Protocol: (§1) After 16 h, cell viability was determined using MTT staining (Colo 205) or crystal violet staining (Huh-7) and data were normalized using bortezomib-treated cells as control (mean SEM, n=3). (B) 1×10^4 Colo205 cells per well were grown in 96-well plates using medium with 0.1% FCS. […] (C) 1×10^4 Huh-7 cells per well were grown in 96-well plates and treated with 20 ng/ml bortezomib or with a combination of bortezomib and 10 μM zVADfmk.

[3] = system: EGFR+ Huh-7 hepatocellular carcinoma cells; assay: EGFR-directed induction of cell death in Huh-7 cells, serial dilutions of protein, crystal violet; assay type: cell-based; conditions: 250 ng/ml bortezomib, caspase inhibitors 10 μM, 16 h
Protocol: as §1
After 16 h, cell viability was determined using crystal violet staining.
(§2) As a positive control, cells were killed with 0.25% Triton X-100. Cell death assays with Huh-7 and HepG2 cells were performed in the absence (FIG. 6, Jurkat cells) or presence of Bortezomib (FIG. 7, Huh-7: 250 ng/ml, FIG. 6, HepG2: 500 ng/ml, FIG. 18, Huh-7: 250 ng/ml), Selleck Chemicals, Houston, Tex.). Bortezomib was added 30 min prior incubation with the proapoptotic ligands to sensitize cells for the induction of cell death (FIGS. 6, 7). Alternatively, cells were preincubated for 30 min with the indicated concentrations of TRAIL fusion proteins followed by addition of serial dilutions of Bortezomib (FIG. 8). […] After 16 h incubation, cell viability was determined either by crystal violet staining (Huh-7, HepG2) or the MTT method (Jurkat) (Wuest et al., 2002). In the latter case a lysis buffer consisting of 15% SDS in DMF/H2O (1:1), pH 4.5 (with […]) acetic acid) was used.

[4] = system: Huh-7 hepatocellular carcinoma cells; assay: Cell death in Huh-7 cells, constant protein concentration, serial dilutions of Bortezomib; assay type: cell-based; conditions: protein concentration of 1 nM and above
Protocol: Results from three independent experiments are shown (mean±S.E.M.).
as §2

[5] = system: Jurkat cells; assay: Target-independent induction of cell death, Jurkat, MTT assay; assay type: cell-based; conditions: not sensitized; SEQ ID NO: 102 compared to KillerTRAIL
Protocol: (§3) Cell viability was determined using crystal violet staining. Results from four independent experiments are shown (mean±S.E.M.). (B) Jurkat cells (1×10^5/well) were used for a similar experiment as described in (A). Jurkat cells were not sensitized. Results from three independent experiments are shown (mean±S.E.M.). Viability of Jurkat cells was determined using the MTT assay.
as §2

[6] = system: EGFR low/negative HepG2 cells; assay: Target-independent induction of cell death, HepG2, crystal violet; assay type: cell-based; conditions: comparator named in value
Protocol: as §3, §2

[7] = 8 daily i.p. injections of 0.45 nmol + bortezomib every second day

Molecule | block of TRAIL fusion protein-induced cell death by inhibitor [2] | block of TRAIL fusion protein-induced cell death by inhibitor [3] | further results
CC(C)C[C@H](NC(=O)[C@H](Cc1ccccc1)NC(=O)c1cnccn1)B(O)O [Bortezomib] | – | – | effect on tumor growth ([1]; bortezomib by itself, 5 μg i.p. on day 1, 3, 5 and 7): did not interfere with progressive tumor growth
COC(=O)CC[C@H](NC(=O)[C@H](CC(=O)OC)NC(=O)OCc1ccccc1)C(=O)N[C@H](C(=O)N[C@@H](CC(=O)OC)C(=O)CF)C(C)C [zDEVDfmk] | nearly complete block of cell death | nearly complete block of cell death | –
CN1C(=O)C(Cc2c[nH]c3ccccc23)NC1=S (stereo not drawn) [necrostatin-1] | failure of necrostatin-1 to prevent or reduce cell death | failure of necrostatin-1 to prevent or reduce cell death | –
COC(=O)C[C@H](NC(=O)[C@H](C)NC(=O)[C@@H](NC(=O)OCc1ccccc1)C(C)C)C(=O)CF [zVADfmk] (Cbz-Val-Ala-Asp(OMe)-CH2F) | nearly complete block of cell death | nearly complete block of cell death | –
SEQ ID NO: 104: single chain TRAIL, three copies of TRAIL 95-281 linked by (GGGS)2 linkers, N-terminal FLAG tag, no component B (protein, scTRAIL fusion protein, single chain TRAIL, three copies of TRAIL 95-281 linked by (GGGS)2 linkers, N-terminal FLAG tag, no component B) TSEETISTVQEKQQNISPLVRERGPQRVAAHITGTRGRSNTLSSPNSKNEKALGRKINSWESSRSGHSFLSNLHLRNGELVIHEKGFYYIYSQTYFRFQEEIKENTKNDKQMVQYIYKYTSYPDPILLMKSARNSCWSKDAEYGLYSIYQGGIFELKENDRIFVSVTNEHLIDMDHEASFFGAFLVGGGGSGGGSTSEETISTVQEKQQNISPLVRERGPQRVAAHITGTRGRSNTLSSPNSKNEKALGRKINSWESSRSGHSFLSNLHLRNGELVIHEKGFYYIYSQTYFRFQEEIKENTKNDKQMVQYIYKYTSYPDPILLMKSARNSCWSKDAEYGLYSIYQGGIFELKENDRIFVSVTNEHLIDMDHEASFFGAFLVGGGGSGGGSTSEETISTVQEKQQNISPLVRERGPQRVAAHITGTRGRSNTLSSPNSKNEKALGRKINSWESSRSGHSFLSNLHLRNGELVIHEKGFYYIYSQTYFRFQEEIKENTKNDKQMVQYIYKYTSYPDPILLMKSARNSCWSKDAEYGLYSIYQGGIFELKENDRIFVSVTNEHLIDMDHEASFFGAFLVG | – | – | effect on tumor growth [1, 7]: delayed tumor growth; regression of tumors [1, 7]: did not induce regression of tumors; induction of apoptosis when sensitized with Bortezomib [4]: nearly equally efficient in induction of complete apoptosis; apoptosis-inducing activity on Jurkat cells [5]: no reactivity
KillerTRAIL: commercially available highly active TRAIL preparation (Enzo Lifesciences / Axxora) (protein, UniProt P50591 39-281, looked up, extracellular domain) extracellular domain: TNELKQMQDKYSKSGIACFLKEDDSYWDPNDEESMNSPCWQVKWQLRQLVRKMILRTSEETISTVQEKQQNISPLVRERGPQRVAAHITGTRGRSNTLSSPNSKNEKALGRKINSWESSRSGHSFLSNLHLRNGELVIHEKGFYYIYSQTYFRFQEEIKENTKNDKQMVQYIYKYTSYPDPILLMKSARNSCWSKDAEYGLYSIYQGGIFELKENDRIFVSVTNEHLIDMDHEASFFGAFLVG | – | – | bioactivity on target negative cells, comparison in words [6]: comparable with the activity of SEQ ID NO: 96
